The values below come from patent US12414960B2, “Analogues of oleuropein and oleacein and uses thereof” (Attica Sciences Ltd., priority 2020, dated 2025).

What is called inhibition is the share of the control response that was lost under treatment.

The target in assay [1] is topoisomerase Type I. Kind of assay: Plasmid relaxation assay. In kind it is biochemical. Conditions: NS = not statistically significant. The text has this:
Topoisomerases are nuclear enzymes that play essential roles in DNA replication, transcription, chromosome segregation, and recombination. Type I topoisomerases (classified into three distinct subfamilies—Type IA, IB, and IC based on structural considerations) are enzymes which make single-stranded cuts in DNA. DNA topoisomerases are important targets of approved and experimental anti-cancer agents. The protocol described here are of assays used to assess the ability of GS compounds to inhibit topoisomerase Type I activity based on relaxation of supercoiled DNA.
Plasmid DNA is a circular double-stranded DNA molecule that is mainly found in bacteria and has the ability to self-replicate on its own. Bacteria may have one or more copies of plasmid DNA that help them survive adverse conditions, as they usually carry antibiotic resistance genes. Even with the help of plasmids being transferred from bacterium to bacterium, it is possible to transfer information that contributes to their survival.
When plasmid DNA runs in an electrophoresis gel it appears mainly in three configurations: (1) The supercoiled conformation, in which the plasmid is intact (without fractures), is its most compact form; (2) The open circular, relaxed conformation, to which it goes when single-stranded fractures are caused. This is caused either from enzymatic or other factors (e.g., free radicals) that have the ability to cause DNA breakage; (3) The linear configuration to which it goes when it has double-stranded fractures. These configurations run at different speeds in an electrophoresis gel. The smaller the configuration, the faster it penetrates the agarose pores. […]
The ability of GS compounds to inhibit topoisomerase Type I activity was assessed based on the relaxation of supercoiled DNA as previously described (Kouka, Paraskevi et al., Oxid Med Cell Longev. 2019, Article ID 1870965). […] Finally, the gels were exposed to UV, the MultiImage Light Cabinet (Alpha Innotech, San Leandro, CA, USA) was used to capture the gel photos, and the results were analyzed with the Alpha View suite. […]

Assay [2] deals with MIA PaCa-2 pancreatic cancer cells. Nature of the assay: Cell Glo luminescence cell growth assay, MIA PaCa-2. In kind it is cell-based, human. Conditions: NS = not statistically significant; for inhibition at 50 µM: Homo sapiens, MIA PaCa-2, 24 h, read-out: Effectiveness to suppress MIA PaCa-2 cell growth (cell growth inhibition); for Effectiveness to suppress MIA PaCa-2 cell growth (cell growth inhibition): 50 uM, 24 h. The text has this:
The CellTiter-Glo® Luminescent Cell Viability Assay (Promega Corporation; Madison, WI) is a homogeneous method of determining the number of viable cells in culture based on quantitation of the ATP present, an indicator of metabolically active cells. The homogeneous assay procedure involves adding the single reagent (CellTiter-Glo® Reagent) directly to cells cultured in serum-supplemented medium. The homogeneous “add-mix-measure” format results in cell lysis and generation of a luminescent signal proportional to the amount of ATP present. The amount of ATP is directly proportional to the number of cells present in culture.
Cancer cells (3,000 cells/well) were harvested in a 96-well plate. Then, the cancer cells were treated with GS compounds and incubated for 24 hours. The MT Cell Viability Substrate, NanoLuc® Enzyme and cell culture medium was equilibrated to 37° C. The 2× RealTime-Glo™ reagent was prepared by diluting the MT Cell Viability Substrate and NanoLuc® Enzyme in 37° C. cell culture medium to a 2× concentration for each reagent. For example, 1 mL of 2× RealTime-Glo™ reagent was prepared by adding 2 μL of MT Cell Viability Substrate, 1,000×, and 2 μL of NanoLuc® Enzyme, 1,000×, to 996 μL of cell culture medium to form the 2× RealTime-Glo™ reagent. Then, an equal volume of 2× RealTime-Glo™ reagent was added to the cancer cells. The cells were kept for ˜20 minutes in the cell culture incubator and then luminescence was measured by using a plate-reading luminometer.
MIA PaCa-2 is a human pancreatic ductal adenocarcinoma cell line derived from the carcinoma of a person.
The effects of exemplary compounds on cancer cell lines and one non-tumorigenic cell line (control) were investigated using a high throughput screening assay. More specifically, the effects of the GS compounds on cell growth was evaluated by the XTT assay for cell lines HepG2, HeLa, MCF7 ER+, MDA-MB-231, and MKN-45, and by the Cell Glo luminescence assay for cell lines MIA PaCa-2, HCT-116, MCF-10A, and PANC-1.

Consider `C/C=C1/[C@H](OC2OC(CO)C(O)C(O)C2O)OC=C(C(=O)O)[C@H]1CC(=O)OCCc1ccc(O)c(O)c1` (stereo in doubt) [GS6, (2S,4S,E)-4-(2-(3,4-dihydroxyphenethoxy)-2-oxoethyl)-3-ethylidene-2{[(2R,3S,4R,5R,6S)-3,4,5-trihydroxy-6-(hydroxymethyl)tetrahydro-2H-pyran-2-yl]oxy}-3,4dihydro-2H-pyran-5-carboxylic acid], for which the “Plasmid Relaxation Assay IC50” value in assay [1] is 5.94 μg extract/mL.

As for `C/C=C1/[C@H](O[C@@H]2O[C@H](CO)[C@@H](O)[C@H](O)[C@H]2O)OC=C(C(=O)OC)[C@H]1CC(=O)OCCc1ccc(O)c(O)c1` [GS1, oleuropein], in assay [1], the “Plasmid Relaxation Assay IC50” value is recorded as 9.91 μg extract/mL.

As to `C/C=C(/C=O)[C@@H](CC=O)CC(=O)OCCc1ccc(O)c(O)c1` [GS17, (3S,4E)-4-formyl-3-(2-oxoethyl)-4-hexenoic acid 2-(3,4-dihydroxyphenyl)ethyl ester, reference compound], in assay [1], the “Plasmid Relaxation Assay IC50” value is on record as 9.5 μg extract/mL.

Regarding `C/C=C(/C=O)[C@@H](CC=O)CC(=O)OCCc1ccc(O)cc1` [GS19, (3S,4E)-4-formyl-3-(2-oxoethyl)-4-hexenoic acid 2-(4-hydroxyphenyl)ethyl ester, reference compound], the inhibition at 50 µM in assay [2] was determined as 30%. On the same count and under the same terms, the figure for `C/C=C(/C=O)[C@@H](CC=O)CC(=O)OCCOc1ccccc1` [GS24, (3S,4E)-4-formyl-3-(2-oxoethyl)-4-hexenoic acid 2-phenoxyethyl ester] is 28%. `C/C=C(/C=O)[C@@H](CC=O)CC(=O)OCCCCCCCCCCCCCCCC` [GS26, (3S,4E)-4-formyl-3-(2-oxoethyl)-4-hexenoic acid hexadecyl ester]: in assay [2], the “Effectiveness to suppress MIA PaCa-2 cell growth (cell growth inhibition)” value (shortened to “Effectiveness … (cell growth inhibition)”) is “best efficacy” and the inhibition at 50 µM was 70%. As for `C/C=C(/C=O)[C@@H](CC=O)CC(=O)SCCc1ccccc1` [GS27, S-phenethyl (3S,4E)-4-formyl-3-(2-oxoethyl)hex-4-enethioate], in assay [2], the “Effectiveness … (cell growth inhibition)” value is “best efficacy” and the inhibition at 50 µM stood at 91%.

Take `C/C=C(/C=O)[C@@H](CC=O)CC(=O)OCCCSC` [GS28, (3S,4E)-4-formyl-3-(2-oxoethyl)-4-hexenoic acid 3-(methylthio)propyl ester]: in assay [2], the “Effectiveness … (cell growth inhibition)” value is recorded as “best efficacy” and the inhibition at 50 µM came out at 79%.
